Experimental findings from ChEMBL document CHEMBL5052848, “Atf6 modulators and uses thereof” (2021) are described below.

Common to all, as to type: cell-based
Test [1] relates to U2OS. As to the kind of experiment: Modulation of ATF6 activity in human U2OS cells at 1 uM in presence of ER stress inducer thapsigargin (Tg) measured by TRE-luciferase reporter assay relative to control.
Test [2] concerns U2OS. The experiment in a line: Modulation of ATF6 activity in human U2OS cells at 10 uM in presence of ER stress inducer thapsigargin (Tg) measured by TRE-luciferase reporter assay relative to control. (In general: In a reporter assay the amount or activity of a reporter protein is the signal.)
Test [3] concerns U2OS. The experiment in a line: Modulation of ATF6 activity in human U2OS cells at 1 uM measured by TRE-luciferase reporter assay relative to control.
The test system of test [4] is U2OS. As to the kind of experiment: Modulation of ATF6 activity in human U2OS cells at 10 uM measured by TRE-luciferase reporter assay relative to control.

Regarding `CC(c1ccc(F)cc1F)n1cc(NC(=O)c2cc(-c3ccco3)on2)cn1` (stereo in doubt; 1-17), the Activity is 100% in test [1] (filed as activator), 100% in test [2] (filed as activator), 0% in test [3] and 0% in test [4].

For `CC(c1c(F)cccc1Cl)n1cc(NC(=O)c2cc(-c3ccco3)on2)cn1` (stereo in doubt; 1-15), the Activity came to 100% in test [1] (filed as activator), 100% in test [2] (filed as activator), 0% in test [3] and 0% in test [4].

Turning to `CC(c1ccc(C(F)(F)F)cc1C(F)(F)F)n1cc(NC(=O)c2cc(-c3cnccn3)no2)cn1` (stereo in doubt; 1-11), the Activity is 50% in test [1] and below 50% in test [2].

`O=C(Nc1cnn(C2CCc3cc(C(F)(F)F)ccc32)c1)c1cc(-c2cnccn2)on1` (stereo unspecified): the Activity in test [1] and in test [2] was 75% each time.

In the case of `CC(c1c(Cl)cccc1Cl)n1cc(NC(=O)c2cc(-c3ccco3)on2)cn1` (single isomer, unassigned), the results for the Activity in test [1] (filed as activator) and in test [2] (filed as activator) were 125% and 100%, respectively.

On to `CC(c1ccc(F)cc1F)n1cc(NC(=O)c2cc(-c3ccco3)on2)cn1` (stereo in doubt; 1-5), for which the Activity in test [1] (filed as activator) is 100%; in test [2] (filed as activator), above 150%.

Take `CC(c1ccc(C(F)(F)F)cc1C(F)(F)F)n1cc(NC(=O)c2cc(-c3cnccn3)no2)cn1` (stereo in doubt; 1-25): the Activity in test [1] and in test [2] was 75% in each case.

Take `O=C(Nc1cnn(C2CCc3cc(Cl)ccc32)c1)c1cc(-c2ccco2)on1` (single isomer, unassigned; enantiomer B): the Activity in test [1] and in test [2] was 75% each time.

For `CC(c1ccc(F)cc1Cl)n1cc(NC(=O)c2cc(-c3ccco3)on2)cn1` (stereo unspecified), the Activity stood at 100% in test [1] (filed as activator) and 75% in test [2].

Regarding `CC(c1c(F)cccc1Cl)n1cc(NC(=O)c2cc(-c3ccco3)on2)cn1` (stereo in doubt; 1-4), the Activity in test [1] (filed as activator) and in test [2] (filed as activator) was above 150% throughout.

In the case of `CC(c1c(Cl)cccc1Cl)n1cc(NC(=O)c2cc(-c3ccco3)on2)cn1` (stereo unspecified), the Activity was above 150% in test [1] (filed as activator), above 150% in test [2] (filed as activator), 0% in test [3] and 0% in test [4].

In the case of `CC(c1c(F)cccc1Cl)n1cc(NC(=O)c2cc(-c3ccco3)on2)cn1` (stereo in doubt; 1-14), the Activity was above 150% in test [1] (filed as activator), above 150% in test [2] (filed as activator), 0% in test [3] and 0% in test [4].

Consider `O=C(Nc1cnn(Cc2ccc(C(F)(F)F)cc2)c1)c1cc(-c2ccco2)on1`, for which the Activity came to 100% in test [1] (filed as activator) and 75% in test [2].

Turning to `O=C(Nc1cnn(C2CCc3cc(Cl)ccc32)c1)c1cc(-c2ccco2)on1` (single isomer, unassigned; enantiomer A), the Activity in test [1] was 75%; in test [2], below 50%.

`CC(c1c(Cl)cccc1Cl)n1cc(NC(=O)c2cc(-c3cccs3)on2)cn1` (stereo unspecified): the Activity in test [1] came out at 75%; in test [2] (filed as activator), 100%; in test [3] it was 0%; in test [4], 0%.

With `O=C(Nc1cnn(Cc2ccc(C(F)(F)F)cc2C(F)(F)F)c1)c1cc(-c2ccco2)on1`, the Activity in test [1] and in test [2] was below 50% throughout.

For `O=C(Nc1cnn(Cc2ccccc2)c1)c1cc(-c2ccco2)on1`, the values for the Activity in test [1] (filed as activator) and in test [2] (filed as activator) were 100% and 125%, respectively.

For the molecule `CC(c1ccc(F)cc1F)n1cc(NC(=O)c2cc(-c3ccco3)on2)cn1` (stereo in doubt; 1-16), the Activity in test [1] (filed as activator) came out at 100%; in test [2] (filed as activator), 125%; in test [3], 0%; in test [4], 0%.

For the molecule `Cc1c(NC(=O)c2cc(-c3ccco3)on2)cnn1C(C)c1c(F)cccc1Cl` (stereo unspecified), the Activity in test [1] was 75%; in test [2] (filed as activator), 100%; in test [3] it was 0%; in test [4] it was 0%.

Consider `CC(c1ccc(C(F)(F)F)cc1C(F)(F)F)n1cc(NC(=O)c2cc(-c3cnccn3)no2)cn1` (stereo in doubt; 1-26), for which the Activity in test [1] and in test [2] was below 50% throughout.

For `O=C(Nc1cnn(C2CCCc3ccccc32)c1)c1cc(-c2ccco2)on1` (stereo unspecified), the Activity was determined as 100% in test [1] (filed as activator) and 125% in test [2] (filed as activator).
